Reference: ChEMBL document CHEMBL4145686, “Discovery of a Potent and Selective Steroidal Glucocorticoid Receptor Antagonist (ORIC-101)” (J Med Chem, 2018)

Key:
[1] = Volume of distribution at steady state in mouse at 0.5 mg/kg, iv; type: ADME, organism-based; details: in vivo, read-out: Vdss
Glucocorticoid receptor [2] = target: T1, Glucocorticoid receptor (Canis lupus familiaris, UniProt A0A8C0QLS2); experiment: Antagonist activity at GR in dog PBMC assessed as reduction in dexamethasone-induced GILZ gene expression incubated for 6 hrs by RT-qPCR method; type: cell-based
T1 sequence (A0A8C0QLS2 whole entry): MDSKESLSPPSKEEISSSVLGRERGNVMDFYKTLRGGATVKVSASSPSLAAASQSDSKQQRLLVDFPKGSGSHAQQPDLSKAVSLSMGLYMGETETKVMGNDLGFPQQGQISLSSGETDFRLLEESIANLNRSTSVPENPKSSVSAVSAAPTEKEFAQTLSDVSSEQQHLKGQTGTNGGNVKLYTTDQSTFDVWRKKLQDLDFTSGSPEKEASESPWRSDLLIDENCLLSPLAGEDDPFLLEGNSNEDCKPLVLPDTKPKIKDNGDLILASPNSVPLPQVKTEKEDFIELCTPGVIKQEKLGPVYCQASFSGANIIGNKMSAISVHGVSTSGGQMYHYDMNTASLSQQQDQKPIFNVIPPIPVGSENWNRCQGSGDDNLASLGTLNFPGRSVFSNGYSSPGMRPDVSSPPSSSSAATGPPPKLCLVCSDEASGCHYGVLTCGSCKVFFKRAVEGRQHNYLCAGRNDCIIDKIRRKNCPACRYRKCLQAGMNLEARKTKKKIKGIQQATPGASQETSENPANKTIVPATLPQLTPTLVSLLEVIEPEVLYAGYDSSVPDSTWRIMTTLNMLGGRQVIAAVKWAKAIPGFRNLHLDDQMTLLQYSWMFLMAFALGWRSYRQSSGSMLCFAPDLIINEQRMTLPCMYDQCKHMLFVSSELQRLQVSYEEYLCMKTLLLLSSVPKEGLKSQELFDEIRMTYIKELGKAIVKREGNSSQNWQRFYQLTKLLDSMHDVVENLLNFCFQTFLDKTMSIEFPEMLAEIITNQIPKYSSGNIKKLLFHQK

[3] = target: T2, glucocorticoid receptor (GR) (Homo sapiens, UniProt P04150); experiment: Agonist activity at human GR expressed in CHO-K1 cells incubated for 20 hrs by luciferase reporter gene assay relative to dexamethasone; type: cell-based; details: CHO-K1 cells expressing human GR
T2 sequence (P04150 whole entry): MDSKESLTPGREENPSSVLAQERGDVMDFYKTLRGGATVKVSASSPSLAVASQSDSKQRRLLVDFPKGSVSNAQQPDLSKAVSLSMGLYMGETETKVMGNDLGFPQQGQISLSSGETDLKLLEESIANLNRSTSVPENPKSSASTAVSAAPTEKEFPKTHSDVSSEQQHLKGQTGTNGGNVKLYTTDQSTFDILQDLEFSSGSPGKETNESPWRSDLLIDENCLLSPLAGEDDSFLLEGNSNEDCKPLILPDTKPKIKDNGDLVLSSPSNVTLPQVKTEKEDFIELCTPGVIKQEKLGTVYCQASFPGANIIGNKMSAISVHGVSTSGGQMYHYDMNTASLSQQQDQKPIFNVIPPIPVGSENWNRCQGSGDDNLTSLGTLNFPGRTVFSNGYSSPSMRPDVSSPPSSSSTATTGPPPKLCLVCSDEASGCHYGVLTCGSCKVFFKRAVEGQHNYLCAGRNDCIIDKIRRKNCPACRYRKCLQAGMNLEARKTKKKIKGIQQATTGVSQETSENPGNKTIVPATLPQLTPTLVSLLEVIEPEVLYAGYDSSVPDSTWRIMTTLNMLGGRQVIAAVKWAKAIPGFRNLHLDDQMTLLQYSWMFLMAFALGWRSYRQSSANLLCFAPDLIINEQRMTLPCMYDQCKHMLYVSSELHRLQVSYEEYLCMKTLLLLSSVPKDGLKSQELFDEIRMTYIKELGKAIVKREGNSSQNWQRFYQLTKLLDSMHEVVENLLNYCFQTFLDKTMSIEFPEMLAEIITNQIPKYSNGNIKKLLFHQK

[4] = AUC in rat at 5 mg/kg, po; type: ADME, organism-based; details: in vivo
Progesterone receptor [5] = target: T3, Progesterone receptor (Homo sapiens, UniProt P06401); experiment: Agonist activity at human PR expressed in CHO-K1 cells incubated for 20 hrs by luciferase reporter gene assay; type: cell-based; details: cho-k1, 20 h
T3 sequence (P06401 whole entry): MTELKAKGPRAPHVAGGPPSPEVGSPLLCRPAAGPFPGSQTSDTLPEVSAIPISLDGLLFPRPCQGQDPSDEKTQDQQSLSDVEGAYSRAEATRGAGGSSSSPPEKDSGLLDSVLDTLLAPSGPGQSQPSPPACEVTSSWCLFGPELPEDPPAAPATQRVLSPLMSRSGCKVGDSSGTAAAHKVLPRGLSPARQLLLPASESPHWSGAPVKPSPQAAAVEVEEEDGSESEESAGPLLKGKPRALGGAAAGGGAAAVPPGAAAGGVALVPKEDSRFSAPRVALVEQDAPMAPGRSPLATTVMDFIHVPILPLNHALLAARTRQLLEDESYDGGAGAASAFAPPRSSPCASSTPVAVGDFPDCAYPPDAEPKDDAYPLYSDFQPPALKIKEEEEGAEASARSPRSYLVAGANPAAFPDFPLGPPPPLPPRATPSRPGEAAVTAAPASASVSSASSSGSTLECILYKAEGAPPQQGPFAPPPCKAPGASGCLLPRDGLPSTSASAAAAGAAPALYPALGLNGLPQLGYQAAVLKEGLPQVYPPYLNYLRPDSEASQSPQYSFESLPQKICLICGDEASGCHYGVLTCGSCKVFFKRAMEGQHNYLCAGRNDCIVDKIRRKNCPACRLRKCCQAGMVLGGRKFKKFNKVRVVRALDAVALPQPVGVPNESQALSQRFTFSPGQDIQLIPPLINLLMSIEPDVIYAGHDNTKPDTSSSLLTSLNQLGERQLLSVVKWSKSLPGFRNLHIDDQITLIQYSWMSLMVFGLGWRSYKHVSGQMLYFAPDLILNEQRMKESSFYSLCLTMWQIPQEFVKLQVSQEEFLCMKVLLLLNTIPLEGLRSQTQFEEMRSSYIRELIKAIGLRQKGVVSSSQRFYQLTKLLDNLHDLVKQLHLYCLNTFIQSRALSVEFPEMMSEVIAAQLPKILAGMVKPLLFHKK

Progesterone receptor [6] = target: T3, Progesterone receptor; experiment: Antagonist activity at human PR expressed in CHO-K1 cells assessed as reduction in progesterone-induced response incubated for 20 hrs by luciferase reporter gene assay; type: cell-based
[7] = Cmax in mouse at 5 mg/kg, po; type: ADME, organism-based; set-up: dose 5 mg/kg, route oral; details: in vivo
[8] = Half life in rat at 0.5 mg/kg, iv; type: ADME, organism-based; details: in vivo
[9] = Oral bioavailability in rat at 5 mg/kg; type: ADME, organism-based; details: in vivo
[10] = AUC in mouse at 5 mg/kg, po; type: ADME, organism-based; details: in vivo
Glucocorticoid receptor [11] = target: T4, Glucocorticoid receptor (Homo sapiens, UniProt P04150); experiment: Agonist activity at human GR expressed in CHO-K1 cells incubated for 20 hrs by luciferase reporter gene assay; type: cell-based
T4 sequence (P04150 whole entry): T2 sequence (P04150 whole entry)

[12] = Oral bioavailability in mouse at 5 mg/kg; type: ADME, organism-based; details: in vivo

Compound: CC(C)N(C)c1ccc([C@H]2C[C@@]3(C)[C@@H](CC[C@@]3(O)C#CC(C)(C)C)[C@@H]3CCC4=CC(=O)CC[C@@H]4[C@H]32)cc1
- Vd [1]: 5.01 L/kg
- IC50 (Glucocorticoid receptor [2]): 34.3 nM
- Emax at 20 h [3]: 2.3%
- AUC [4]: 635 ng·h/mL
- Activity (Progesterone receptor [5]): Not Active
- IC50 (Progesterone receptor [6]): 21 nM
- Cmax [7]: 274 ng/mL
- half-life [8]: 4.4 h
- bioavailability [9]: 24%
- AUC [10]: 644 ng·h/mL
- EC50 (Glucocorticoid receptor [11]): > 2500 nM
- bioavailability [12]: 21%
